Assay results published in ChEMBL document CHEMBL3856226, “N-(2-Alkyleneimino-3-phenylpropyl)acetamide Compounds and Their Use against Pain and Pruritus via Inhibition of TRPA1 Channels” (ACS Med Chem Lett, 2016).

Target: Transient receptor potential cation channel subfamily A member 1 (Homo sapiens, UniProt O75762)
Assay: Inhibition of cinnamaldehyde-activated full length human TRPA1 channel expressed in 293T-Rex cells monitored at 5 sec interval by manual patch clamp electrophysiological method
Type: cell-based

Chain of Transient receptor potential cation channel subfamily A member 1 (O75762 whole entry): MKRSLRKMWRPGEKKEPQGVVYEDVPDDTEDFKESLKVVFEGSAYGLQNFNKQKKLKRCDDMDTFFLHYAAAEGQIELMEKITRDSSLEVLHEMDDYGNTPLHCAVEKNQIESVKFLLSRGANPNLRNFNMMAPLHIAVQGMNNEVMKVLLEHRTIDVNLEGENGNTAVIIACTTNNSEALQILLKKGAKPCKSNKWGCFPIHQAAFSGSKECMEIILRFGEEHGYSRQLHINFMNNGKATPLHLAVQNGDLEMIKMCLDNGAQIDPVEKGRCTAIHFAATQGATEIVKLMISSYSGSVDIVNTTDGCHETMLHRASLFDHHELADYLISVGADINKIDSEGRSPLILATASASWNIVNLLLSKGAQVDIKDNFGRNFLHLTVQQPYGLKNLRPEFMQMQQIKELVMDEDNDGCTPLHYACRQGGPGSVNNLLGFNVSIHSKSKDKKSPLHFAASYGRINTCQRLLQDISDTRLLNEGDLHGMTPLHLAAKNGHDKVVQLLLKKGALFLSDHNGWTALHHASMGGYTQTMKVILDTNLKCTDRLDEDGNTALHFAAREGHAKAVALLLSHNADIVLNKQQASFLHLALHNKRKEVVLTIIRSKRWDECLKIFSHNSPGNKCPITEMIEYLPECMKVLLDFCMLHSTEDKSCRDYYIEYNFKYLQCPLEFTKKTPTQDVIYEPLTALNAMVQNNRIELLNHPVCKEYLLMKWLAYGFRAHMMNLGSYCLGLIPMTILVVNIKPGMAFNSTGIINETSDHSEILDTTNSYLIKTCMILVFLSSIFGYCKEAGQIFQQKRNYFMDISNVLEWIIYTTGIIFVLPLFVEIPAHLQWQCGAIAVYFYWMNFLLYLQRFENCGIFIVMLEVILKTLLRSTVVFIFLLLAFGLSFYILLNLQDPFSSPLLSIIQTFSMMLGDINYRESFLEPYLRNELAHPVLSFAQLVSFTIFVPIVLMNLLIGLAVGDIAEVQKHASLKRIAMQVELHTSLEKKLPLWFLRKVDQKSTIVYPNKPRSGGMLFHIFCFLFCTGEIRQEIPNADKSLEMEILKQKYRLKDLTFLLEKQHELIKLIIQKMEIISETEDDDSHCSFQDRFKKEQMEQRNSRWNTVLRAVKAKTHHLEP

IC50 [nM] | Structure (SMILES)
14 | O=C(NCC(Cc1ccccc1)N1CCC(O)(C(F)(F)F)CC1)C1(c2ccc(Cl)cc2)CC1 (stereo not drawn)
4 | O=C(NCC(Cc1ccccc1)N1CCC(O)(C(F)(F)F)CC1)C1(c2ccc(F)cc2)CCCCC1 (stereo not drawn)
2 | O=C(NCC(Cc1ccc(F)cc1)N1CCC(O)(C(F)(F)F)CC1)C1(c2ccc(Cl)cc2)CC1 (stereo not drawn)
1 | O=C(NCC(Cc1ccccc1)N1CCC(O)(C(F)(F)F)CC1)C1(c2ccc(Cl)cc2)CCCC1 (stereo not drawn)

The next lines start with the molecule.

Structure (SMILES) | IC50 [nM]
O=C(NCC(Cc1ccccc1)N1CCC(C(F)(F)F)CC1)C1(c2ccc(Cl)cc2)CCCC1 (stereo not drawn) | 7
N#Cc1ccc(CC(CNC(=O)C2(c3ccc(Cl)cc3)CCCC2)N2CCC(O)(C(F)(F)F)CC2)cc1 (stereo not drawn) | 63
O=C(NCC(Cc1ccc(Br)cc1)N1CCC(O)(C(F)(F)F)CC1)C1(c2ccc(Cl)cc2)CCCC1 (stereo not drawn) | 12
CC(C)(C(=O)NCC(Cc1ccccc1)N1CCC(O)(C(F)(F)F)CC1)c1ccccc1 (stereo not drawn) | 43
